Key:
PpKTFusion = target: T1, PpKTFusion (Pseudomonas putida, UniProt Q88J67); assay: HPLC conversion of […] to […], non-linear regression to substrate inhibition equation; format: biochemical; details: apparent, amine donor L-glutamate, 1.0 mM PLP, HEPES pH 7.7, 10% DMSO, 30 °C (conditions of Fig. 7F)
T1 construct: gene PP_2782; full-length fusion (N-terminal TAm 1-526, linker 527-562, C-terminal reductase 563-959); N-terminal His6-tag, pET-28a(+), E. coli
T1 sequence (Q88J67 1-959): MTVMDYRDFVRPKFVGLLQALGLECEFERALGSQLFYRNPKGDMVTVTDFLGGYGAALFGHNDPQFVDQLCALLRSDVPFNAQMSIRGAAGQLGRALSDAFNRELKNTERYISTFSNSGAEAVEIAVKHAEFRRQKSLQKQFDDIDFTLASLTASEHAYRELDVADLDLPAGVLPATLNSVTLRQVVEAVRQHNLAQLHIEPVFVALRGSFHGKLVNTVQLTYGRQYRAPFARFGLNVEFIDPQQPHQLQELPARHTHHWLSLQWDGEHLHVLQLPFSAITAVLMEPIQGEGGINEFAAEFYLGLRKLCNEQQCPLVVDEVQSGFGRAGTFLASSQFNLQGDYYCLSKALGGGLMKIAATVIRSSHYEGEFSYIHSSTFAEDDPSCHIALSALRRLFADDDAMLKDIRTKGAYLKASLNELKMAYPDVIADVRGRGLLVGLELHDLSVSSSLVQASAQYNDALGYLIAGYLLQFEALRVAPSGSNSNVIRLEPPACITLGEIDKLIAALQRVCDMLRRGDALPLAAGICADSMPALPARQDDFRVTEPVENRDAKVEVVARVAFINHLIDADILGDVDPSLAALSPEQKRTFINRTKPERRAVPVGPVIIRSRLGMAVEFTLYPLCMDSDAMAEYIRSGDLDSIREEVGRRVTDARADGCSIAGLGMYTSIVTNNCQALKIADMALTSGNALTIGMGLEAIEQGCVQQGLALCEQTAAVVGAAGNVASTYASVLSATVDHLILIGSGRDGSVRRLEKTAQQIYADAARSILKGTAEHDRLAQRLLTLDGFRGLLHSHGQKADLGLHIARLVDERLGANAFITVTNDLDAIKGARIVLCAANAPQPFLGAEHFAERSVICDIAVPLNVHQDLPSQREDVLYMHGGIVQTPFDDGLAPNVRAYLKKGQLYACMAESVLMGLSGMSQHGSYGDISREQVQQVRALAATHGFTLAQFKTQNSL

TfFusion = target: T2, TfFusion (Thermincola carboxydiphila, UniProt A0A0L6W1G2); assay: as above; format: biochemical; details: apparent, amine donor L-glutamate, 1.0 mM PLP, HEPES pH 7.7, 10% DMSO, 50 °C (conditions of Fig. 7F)
T2 construct: gene Tfer_2018; full-length fusion; N-terminal His6-tag, pET-28a(+), E. coli

PpKTTAm = target: T3, PpKTTAm (Pseudomonas putida, UniProt Q88J67); assay: as above; format: biochemical; details: apparent, amine donor L-glutamate, 1.0 mM PLP, HEPES pH 7.7, 10% DMSO, 30 °C (conditions of Fig. 7F)
T3 construct: gene PP_2782; truncated to N-terminal TAm domain (assigned residues 1-526); N-terminal His6-tag, pET-28a(+), E. coli
T3 sequence (Q88J67 1-526): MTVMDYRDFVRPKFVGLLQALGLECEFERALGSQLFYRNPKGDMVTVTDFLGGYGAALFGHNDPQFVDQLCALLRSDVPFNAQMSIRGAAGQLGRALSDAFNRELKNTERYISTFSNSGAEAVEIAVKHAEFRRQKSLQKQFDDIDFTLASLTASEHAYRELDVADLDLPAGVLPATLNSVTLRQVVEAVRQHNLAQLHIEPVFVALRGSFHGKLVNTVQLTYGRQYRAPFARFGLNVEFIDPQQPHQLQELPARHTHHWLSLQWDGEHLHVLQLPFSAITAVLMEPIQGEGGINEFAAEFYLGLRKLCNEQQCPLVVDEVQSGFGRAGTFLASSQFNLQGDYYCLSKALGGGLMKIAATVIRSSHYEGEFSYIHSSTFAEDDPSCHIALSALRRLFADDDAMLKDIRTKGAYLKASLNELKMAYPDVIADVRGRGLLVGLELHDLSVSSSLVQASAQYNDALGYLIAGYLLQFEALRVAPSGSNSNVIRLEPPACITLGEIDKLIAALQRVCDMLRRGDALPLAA

TfTAm = target: T4, TfTAm (Thermincola carboxydiphila, UniProt A0A0L6W1G2); assay: HPLC conversion of […] to […], non-linear regression; format: biochemical; details: apparent; amine acceptor 3-phenylpropionaldehyde (10 mM), 1.0 mM PLP, HEPES pH 7.7, 10% DMSO, 50 °C (conditions of Fig. 7E); read-out: K ^app m
T4 construct: gene Tfer_2018; truncated to N-terminal TAm domain (borders only in ESI); N-terminal His6-tag, pET-28a(+), E. coli

purified protein [1] = substrate: N[C@@H](CCC(=O)O)C(=O)O; assay: purified protein; format: biochemical, Thermincola carboxydiphila; details: apparent, amine acceptor 3-phenylpropionaldehyde (10 mM), 1.0 mM PLP, HEPES pH 7.7, 10% DMSO, 50 °C (conditions of Fig. 7E)
purified protein [2] = substrate: O=CCCc1ccccc1; assay: purified protein; format: biochemical, Thermincola carboxydiphila; details: apparent, amine donor L-glutamate, 1.0 mM PLP, HEPES pH 7.7, 10% DMSO, 50 °C (conditions of Fig. 7F)

**Q.** With `O=CCCc1ccccc1` [compound 13, 3-phenylpropionaldehyde] as the molecule, how does the “K ^app i” value (PpKTFusion) read?
**A.** 3.37 µM

**Q.** And the “K ^app i” value (TfFusion)?
**A.** 52.92 µM

**Q.** And the “K ^app i” value (PpKTTAm)?
**A.** 5.13 µM

**Q.** With `N[C@@H](CCC(=O)O)C(=O)O` [compound 36, L-glutamate] as the molecule, how does the Km (TfTAm) read?
**A.** 9.57 mM

B1: TfFusion (Thermincola carboxydiphila) (protein)
chain: MKFSSLNPTMDKLFECFKLDVAYVKGEGTYLYDQAGNKYLDFIAQYGAVPFGYNPPELVAAAKKYFDLSLPSMVQPSIPVKAVELAEMLLQLAPGEMAQATFCQSGAEAVEVAIKLARSTTGKPKILSTKNSFHGKTMGALSATGRDVYQKPFFTPVPGFEHIPFGDLDMLENKMRTEGKQIAAFLVEPIQGEGGIIVPPEGYLKNAEIICRKYGVLLAVDEIQTGLGRTGELFACDREGVEPDILLLSKALGGGLVPLGVCLSTRQAWNEEFGRLHSSTFANNNFTCAIGLAVLNKLLENGRQLINNAKSAGNYLLKNLEDINRQYPGVIKEIRGRGLMLGLEFNEFDGSESFSMKYLAEQGGFSPLLAGYLLNVHKVRVAPFLNNPMTLRLQPSLTVATVEIDRALHGLERVVKALYYQDHCELYSYIIGKEPGPIRDFRSEKKAVTGSELLPEEKPTEKFAFLIHYPSSEDVIKNNPSFKKASKDILEKLIDWEASLDAEPEVIVHLPAIKSKAGKIAEGWLIGIPYSGRHMMEMPRKDAVKVLVTALDKAKALGARIVGLGAYTSVVSRGGSDLQGKGIAVTSGNSYTIATAFDALIEGARLMGIDPAESTGCVIGATGSIGRVCAILLAEEIDKLVLVGNPEKEKTSLRRMEQLADEIYTRAFREILAYKGKVAKIKGIAKWLKGFLDRKRKDDPEVWNKLLTALENQGFSINGYIHENLAAKGKYSNPPVKITVNIKQALLQSDLIISASNSTNHLIGPGHLKPGSVICDVARPPDVSEAVLEQRKDVLVIEGGLVQYPDDICFGQNMGYEPGVNMACLSETMLLALEGTYRDFSIGLKIPVENVYYLRELAQRHGFKLATPWNKNGGVTPEVARMIKEAALKNENVEKIKTPKSS
notes: full-length fusion; N-terminal His6-tag, pET-28a(+), E. coli
**Q.** What does the source list for B1?
**A.** Km (purified protein [1]): 16.44 mM; kcat (purified protein [1]): 0.2672 s⁻¹; Km (purified protein [2]): 50.61 mM; kcat (purified protein [2]): 1.171 s⁻¹

From publication PMC10829540, “Natural transaminase fusions for biocatalysis” (RSC Advances, 2024)
